Structures can show the parent of a compound that is named as a salt.
Tests used:
[1] = tested on: human spermatozoa; experiment: acrosome-reacted (PNA+) sperm after agonist cocktail, percent change vs DMSO (capacitating); higher = more of the measured sperm population than DMSO, for viability, fewer PI-positive (dead) cells than DMSO; conditions: incubation time: 3h, capacitating + agonist cocktail 1h
[2] = tested on: human spermatozoa; experiment: hyperactivated motile sperm, percent change vs DMSO (capacitating); higher = more of the measured sperm population than DMSO, for viability, fewer PI-positive (dead) cells than DMSO; conditions: incubation time: 30min incubation
[3] = tested on: human spermatozoa; experiment: progressively motile sperm, percent change vs DMSO (non-capacitating); higher = more of the measured sperm population than DMSO, for viability, fewer PI-positive (dead) cells than DMSO; extreme values may be limits of the assay
[4] = tested on: human spermatozoa; experiment: viability fold change, 1 - (PI-positive fraction / DMSO median); higher = more of the measured sperm population than DMSO, for viability, fewer PI-positive (dead) cells than DMSO; conditions: incubation time: 3h, non-capacitating
[5] = tested on: human spermatozoa; experiment: change in acrosome-reacted (PNA+) sperm vs DMSO, no agonist (capacitating); higher = more of the measured sperm population than DMSO, for viability, fewer PI-positive (dead) cells than DMSO; conditions: incubation time: 3h
[6] = tested on: HepG2; experiment: HepG2 toxicity (resazurin), effect normalised to DMSO (DMSO = 0); higher = more features changed / larger toxic effect; conditions: incubation time: 70h incubation
[7] = tested on: human spermatozoa; experiment: progressively motile sperm, percent change vs DMSO (capacitating); higher = more of the measured sperm population than DMSO, for viability, fewer PI-positive (dead) cells than DMSO; conditions: incubation time: 30min incubation
[8] = tested on: HeLa; experiment: HeLa toxicity: nuclei-count effect normalised to DMSO (DMSO = 0); higher = more features changed / larger toxic effect; conditions: incubation time: 24h incubation
[9] = tested on: human spermatozoa; experiment: total motile sperm, percent change vs DMSO (non-capacitating); higher = more of the measured sperm population than DMSO, for viability, fewer PI-positive (dead) cells than DMSO
[10] = tested on: HeLa; experiment: Cell Painting percent induction (share of features beyond 2 z-scores vs DMSO); higher = more features changed / larger toxic effect; extreme values may be limits of the assay; conditions: incubation time: 24h incubation
[11] = incubation time: 10min incubation, 9.99 µM
[12] = incubation time: 10min incubation, 29.9 µM
[13] = incubation time: 3h incubation, 9.99 µM
[14] = incubation time: 3h incubation, 29.9 µM
[15] = incubation time: 6h incubation, 9.99 µM
[16] = incubation time: 6h incubation, 29.9 µM
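For progressively motile sperm, percent change vs DMSO (non-capacitating) in this document: pooled live human sperm from at least 3 donors, tracked by automated microscopy in 0.5 s time-lapse movies, compounds at 10 and 30 µM, versus median of 16 DMSO wells per plate.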
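For total motile sperm, percent change vs DMSO (non-capacitating) in this document: sperm pooled from at least 3 donors, tracked in 0.5 s time-lapse movies by automated microscopy after 10 min, 3 h or 6 h with compound at 10 or 30 µM.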

| SMILES | acrosome-reacted ([1]; 9.99 µM) | acrosome-reacted ([1]; 29.9 µM) | hyperactivated motile sperm ([2]; 9.99 µM) | hyperactivated motile sperm ([2]; 29.9 µM) | progressively motile sperm [3, 11] | progressively motile sperm [3, 12] | progressively motile sperm [3, 13] | progressively motile sperm [3, 14] | progressively motile sperm [3, 15] | progressively motile sperm [3, 16] | viability fold change ([4]; 9.99 µM) | viability fold change ([4]; 29.9 µM) | change in acrosome-reacted ([5]; 9.99 µM) | change in acrosome-reacted ([5]; 29.9 µM) | HepG2 toxicity ([6]; 10 µM) | HepG2 toxicity ([6]; 30 µM) | progressively motile sperm ([7]; 9.99 µM) | progressively motile sperm ([7]; 29.9 µM) | HeLa toxicity: nuclei-count effect normalised ([8]; 9.99 µM) | HeLa toxicity: nuclei-count effect normalised ([8]; 29.9 µM) | total motile sperm [9, 11] | total motile sperm [9, 12] | total motile sperm [9, 13] | total motile sperm [9, 14] | total motile sperm [9, 15] | total motile sperm [9, 16] | Cell Painting percent induction ([10]; 9.99 µM) | Cell Painting percent induction ([10]; 29.9 µM) |
| --- | --- | --- | --- | --- | --- | --- | --- | --- | --- | --- | --- | --- | --- | --- | --- | --- | --- | --- | --- | --- | --- | --- | --- | --- | --- | --- | --- | --- |
| Nc1nc(Cl)nc2c1ncn2[C@@H]1O[C@H](CO)[C@@H](O)[C@@H]1F [Clofarabine] | 87.1% | 104% | 206% | 262% | 21.7% | 19.3% | 50.7% | 35.6% | 46.2% | 29.9% | -0.45 | -0.516 | 1.07% | 0.866% | 12.2% | 19.6% | 10.5% | 12.9% | 47.6% | 47.5% | -6.85% | -9.16% | -17.7% | -20.8% | -25.1% | -28.8% | 0.396% | 0.54% |
| Clc1ccc(C(OCCN2CCCCC2)c2ccccc2)cc1 (configuration not stated) [Cloperastine hydrochloride] | -1.44% | -4.86% | -26.2% | -69.6% | 7.41% | -9.23% | -87% | -98.1% | -86.3% | -97.8% | -1.96 | -1.7 | 1.21% | 0.462% | 7.17% | 8.06% | 5.13% | -14.3% | 6.68% | 19.6% | 1.61% | 2.24% | -3.5% | -29.1% | -19.1% | -44% | 1.84% | 3.64% |
| CNS(=O)(=O)c1ccccc1Nc1nc(Nc2ccc(C3CCN(C)CC3)cc2OC)ncc1Cl [Compound 19] | -19.8% | 31.9% | -80.3% | -81.6% | -91.3% | -92.3% | -90.1% | -93.7% | -90.5% | -96% | -0.353 | -1.11 | 1.02% | 5.53% | 103% | 103% | -48.6% | -61.5% | 98.9% | 97.1% | -56.4% | -58.2% | -66.7% | -69.7% | -63.1% | -74.1% | 51.7% | 53.2% |
| CCOC(=O)CSc1nc(=O)c(NCC(=O)OC)n[nH]1 [Compound B4] | 78.6% | 102% | 141% | 283% | 0.38% | -0.636% | 7.69% | -26.4% | 4.42% | -27.1% | -0.743 | -0.817 | 0.981% | 1.58% | -2.06% | 5.66% | 3.54% | -5% | -3.67% | -5.81% | -1.27% | -2.9% | -1.69% | -8.87% | -5.02% | -14.2% | 0% | 0% |

Reference: the supplement of paper PMC10878532, “Sperm Toolbox—A selection of small molecules to study human spermatozoa” (PLOS ONE, 2024)
